The text below walks through data of PMC12705620 (Frontiers in Pharmacology, 2025).

Several values for one entry are separate records, joined by “and”; a condition that tells them apart may be missing. Identical values can stand only once. Like-named read-outs stand apart in the source and are kept apart here.

The test system of series [1] is HaCaT human keratinocytes. Put plainly: Cytotoxicity (WST-1 and LDH). It counts as cell-based. Here is the method:
(§1) Cells (5 × 10^5 cells/mL) were seeded in 96-well plates (100 μL/well; Thermo Scientific) and allowed to adhere for 24 h. After adhesion, monolayers were exposed to two-fold serial dilutions of the tetrameric and reference peptides (final concentrations: 60–0.05 µM) in fresh DMEM containing 2% (v/v) FBS, and incubated for 24 h at 37 °C in a humidified 5% CO2 atmosphere. Cell viability was assessed using the water-soluble tetrazolium salt (WST-1; Roche) assay, and membrane integrity was measured using the lactate dehydrogenase (LDH) release assay (Abcam), following manufacturer instructions. Absorbance was measured using the Synergy H1 microplate reader (Biotek). Results are expressed as percentages relative to untreated control (for WST-1) and positive lysis control (for LDH) and all experiments were performed in triplicate.

Series [2] deals with human skin fibroblast cells (BJ). Put plainly: Cytotoxicity (WST-1 and LDH). It counts as cell-based. On the procedure:
as §1
In general terms: Tetrazolium assays rely on reduction of a dye to a coloured formazan, in cell work by metabolically active cells.

Series [3] deals with TNF-α production by unstimulated dTHP-1 macrophages. Put plainly: TNFα induction by peptides alone in macrophages. The conditions noted are these: 2 µM peptide, 4 h, no endotoxin stimulation, versus unstimulated cells. It counts as cell-based, human. On the procedure:
The endotoxin-neutralizing capacity of the peptides was assessed by measuring tumor necrosis factor-alpha (TNF-α) production by dTHP-1 macrophages. dTHP-1 macrophages were stimulated with either lipopolysaccharide (LPS; E. coli O111:B4; 5 ng/mL, Sigma-Aldrich) or UV-inactivated S. aureus JAR060131 (MOI 2; as described in Section 5.2), in the presence or absence of one or 2 µM peptides. Cells were cultured in serum-free RPMI and incubated for 4 h at 37 °C with 5% CO2. Positive controls consisted of cells stimulated with LPS or UV-S. aureus without peptide treatment (no treatment, NT), and unstimulated cells served as negative controls. After stimulation, cell supernatants were collected, and cytokine levels of TNF-α were quantified using human ELISA kits (R&D Systems, USA) according to the manufacturer’s instructions. Each condition was tested in triplicate.

The subject of series [4] is Staphylococcus aureus JAR060131. The series is classed as cell-based. The conditions noted are these: 18 h, 37 °C, median of three independent experiments. On the procedure:
(§2) Bactericidal activity was assessed as previously described ([Breij et al., 2018]). Briefly, mid-logarithmic phase bacterial cultures were diluted in RPMI to 1 × 10^7 CFU/mL. For fungicidal assays, fungal cultures were prepared in RPMI supplemented with 1% glucose (Merck) and diluted to 2–5 × 10^5 CFU/mL. For each condition, 10 µL of the suspension was added to 90 µL of peptide-containing RPMI or RPMI supplemented with 50% (v/v) pooled human plasma (hereafter referred to as 50% plasma; final bacterial concentration 1 × 10^6 CFU/mL, final fungal concentration 2–5 × 10^4 CFU/mL. Human plasma from four healthy volunteers (Sanquin, Netherlands) was pooled, and stored at −20 °C until use. Peptides were tested similarly for fungicidal activity, after 18 h of incubation at 37 °C with shaking (120 rpm) under humidified conditions, bacterial and fungal survival was determined by plating 10 µL aliquots onto BA plates. Assays were performed in duplicate in round-bottom polypropylene microtiter plates (Costar) and repeated independently three times. Untreated controls included bacteria exposed to RPMI alone or RPMI with 50% plasma. Bactericidal and fungicidal activity was expressed as the lethal concentration 99.9% (LC99.9), defined as the lowest peptide concentration causing ≥99.9% reduction in numbers of CFU compared to the initial inoculum.

Series [5] relates to Acinetobacter baumannii RUH875. The series is classed as cell-based. Particulars: 18 h, 37 °C, median of three independent experiments (Table 1). On the procedure: as §2
Series [6] relates to S. aureus RN4220 (mCherry) in dTHP-1 macrophages. Kind of series: Intracellular bacterial killing in macrophages. It counts as cell-based, Staphylococcus aureus. The conditions noted are these: 24 h pre-treatment at 1 µM and 2 µM, MOI 2, CFU after lysis, versus no treatment. On the procedure: Human monocytes (THP-1; TIB-202; ATCC) were cultured in RPMI 1,640 medium (Gibco) supplemented with 10% FBS. For differentiation into macrophage-like cells (dTHP-1), THP-1 monocytes were seeded in 96-well plates at 3 × 10^4 cells/well (100 µL) in RPMI supplemented with 50 ng/mL phorbol 12-myristate 13-acetate (PMA; Sigma-Aldrich), and incubated for 48 h. The protocol for intracellular killing was adapted from Tang et al. ([Tang et al., 2015]) with modifications. After differentiation, dTHP-1 cells were pre-treated with one or 2 µM peptide solutions in fresh RPMI for 24 h. Subsequently peptides were removed by washing three times with PBS. An mCherry-expressing S. aureus strain, prepared as described in Section 5.2, was used. This strain is efficiently internalized by macrophages ([Cuypers et al., 2024]). Bacteria were added to dTHP-1 cells at a multiplicity of infection (MOI) of 2:1 and incubated for 45 min at 37 °C with 5% CO2 for phagocytosis. Extracellular bacteria were then removed by washing the wells three times with 60 µL PBS, followed by a final wash with 200 µL PBS.dTHP-1 cells were either lysed immediately to quantify the number of intracellular bacteria, after phagocytosis (T = 0 h) or were incubated for 24 h (T = 24 h) in RPMI supplemented with 10 μg/mL gentamicin (Sigma-Aldrich) to inhibit extracellular bacterial growth (in both peptide-treated and control dTHP-1 cells). Internalized bacteria were quantified after lysing the cells with 0.025% Triton X-100 in PBS for 15 min. Lysates were serially diluted (both at 0 h and 24 h) and plated onto BA for CFU enumeration to assess intracellular bacterial survival.

Another series deals with HaCaT keratinocytes. Put plainly: In vitro scratch wound assay. The series is classed as cell-based, human. Particulars: 1 µM peptide (TGF-β 20 ng/mL), 60 h (legend: 64 h), versus no treatment. Here is the method: Cell migration following injury was assessed using an in vitro scratch assay with the IncuCyte wound maker tool (Sartorius). HaCaT keratinocytes were seeded in 96-well ImageLock plates (Sartorius) at 3 × 10^5 cells/well (100 µL) in DMEM supplemented with 10% FBS and incubated at 37 °C, 5% CO2 for 48 h, with medium change at 24 h, until confluence. Uniform scratches were introduced using the wound maker tool according to the manufacturer’s instructions. After wounding, wells were washed twice with 100 µL PBS to remove cell debris. Cells were then treated with 1 µM peptides in serum-free DMEM, to focus specifically on cell migration from the wound edges. The absence of serum minimizes interference with peptide activity. Transforming growth factor-beta (TGF-β; human; 20 ng/mL; Sigma-Aldrich) and 5% dimethyl sulfoxide (DMSO; Sigma-Aldrich) were used as positive and negative controls, respectively. Additional controls included serum-free DMEM (no-treatment control) and 50% (v/v) acetonitrile in Milli-Q water as solvent control. Wound closure was monitored using the IncuCyte S3 live-cell imaging system (Sartorius) with bright-field microscopy. Images were captured every 6 h for up to 60 h. Image analysis was performed using ImageJ software (version 1.53t, NIH, USA) with the “Wound Healing” plugin, as described by Suarez Arnedo et al. ([Suarez-Arnedo et al., 2020]). Quantitative parameters included wound width (µm), percent wound closure, and migration rate (µm/hour).

The subject of the next series is human erythrocytes. Kind of series: Hemolytic activity. The series is classed as cell-based. Particulars: 45 min. Here is the method:
Whole blood was collected from healthy volunteers after obtaining informed consent, using Vacuette EDTA tubes (Greiner Bio-One). […] For hemolytic assessment, 180 μL of the prepared erythrocyte suspension was mixed with 20 μL of serially diluted peptide solutions (ranging from 60 to 0.03 μM in PBS).

Where [7] appears, read: 24 h exposure, DMEM 2% FBS, concentration causing >30% membrane permeation, triplicate.
[8] abbreviates: 24 h exposure, WST-1, concentration causing <70% metabolic activity, triplicate.

For the compound `CC[C@H](C)[C@H](NC(=O)[C@H](CCCCN)NC(=O)[C@H](CCC(=O)O)NC(=O)[C@H](CCCCN)NC(=O)[C@H](CO)NC(=O)[C@H](CCCCN)NC(=O)[C@H](CCCNC(=N)N)NC(=O)[C@H](Cc1ccccc1)NC(=O)[C@H](Cc1ccccc1)NC(=O)[C@H](CC(=O)O)NC(=O)CNC(=O)[C@H](CC(C)C)NC(=O)[C@@H](N)CC(C)C)C(=O)NCC(=O)N[C@@H](CCCCN)C(=O)N[C@@H](CCC(=O)O)C(=O)N[C@@H](Cc1ccccc1)C(=O)N[C@@H](CCCCN)C(=O)N[C@@H](CCCNC(=N)N)C(=O)N[C@H](C(=O)N[C@H](C(=O)N[C@@H](CCC(N)=O)C(=O)N[C@@H](CCCNC(=N)N)C(=O)N[C@H](C(=O)N[C@@H](CCCCN)C(=O)N[C@@H](CC(=O)O)C(=O)N[C@@H](Cc1ccccc1)C(=O)N[C@@H](CC(C)C)C(=O)N[C@@H](CCCNC(=N)N)C(=O)N[C@@H](CC(N)=O)C(=O)N[C@@H](CC(C)C)C(=O)N[C@H](C(=O)N1CCC[C@H]1C(=O)N[C@@H](CCCNC(=N)N)C(=O)N[C@H](C(=O)N[C@@H](CCC(=O)O)C(=O)N[C@@H](CO)C(=O)O)[C@@H](C)O)C(C)C)[C@@H](C)CC)C(C)C)[C@@H](C)CC` [LL-37, reference compound], the “Cytotoxicity, LDH leakage” value in series [1] (setting [7]) is reported as 15 µM; in series [2] (setting [7]), 7.5 µM. In addition, the “Cytotoxicity, Metabolic activity” value in series [1] (setting [8]) and in series [2] (setting [8]) was 15 µM in each case. For the same compound, the “Cytotoxicity threshold (tolerance), WST-1 and LDH” value is 15 µM in series [1] (keratinocytes, 24 h) and 7.5 to 15 µM in series [2] (fibroblasts, 24 h). In addition, the “TNFα induction by peptide alone” value in series [3] is “minimal but significant”. Also, the LC99.9 in series [4] (50% pooled human plasma in RPMI) was 60 µM; in series [4] (RPMI, 1 × 10^6 CFU/mL), 1.88 µM; in series [5] (50% pooled human plasma), > 120 µM and >120 µM; in series [5] (RPMI), >120 µM. In addition, the “Macrophage reduction of intracellular S. aureus burden 24 h post-phagocytosis” value in series [6] was “significantly enhanced”. In the series on HaCaT keratinocytes, the “Percentage of wound closure” value is listed as “significant wound closure”. The “Hemolysis at the highest concentration tested” value in the series with human erythrocytes (60 µM, human erythrocytes) is “non-hemolytic”. For the same compound, the “Hemolytic concentration (HC) < 30%” value in the series with human erythrocytes (1% human erythrocytes in PBS, 37 °C, absorbance 540 nm, 30% lysis threshold, peptides up to 60 µM, triplicate, single donor) was above 60 µM.
